Here are results for twelve molecules from ChEMBL document CHEMBL1201862, “PubChem BioAssay data set” (2004).

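48-hour exposure; five concentrations; linearly interpolated endpoints. GI50: concentration for 50% inhibition of growth.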 Activity calls are given as the source filed them. Rule as the data show it: active = GI50 up to about 1.1 µM and inactive = higher.

Assay in all cases: DTP human tumour cell line panel, 48 h
The test system of experiment [1] is CAKI-1.
Experiment [2] has as its system A498.
For experiment [3], the system named is COLO 205.
Experiment [4] concerns PC-3.
Experiment [5] has as its system RPMI-8226.
Experiment [6] deals with SK-MEL-28.
For experiment [7], the system named is SF-295.
Experiment [8] deals with OVCAR-4.
The test system of experiment [9] is SNB-19.
Experiment [10] relates to MOLT-4.
Experiment [11] concerns SR.
For experiment [12], the system named is SNB-75.
The subject of experiment [13] is K562.
Experiment [14] has as its system T47D.
Experiment [15] relates to CCRF-CEM.
Experiment [16] concerns MDA-MB-435.
In experiment [17] the test system is HT-29.
In experiment [18] the test system is NCI-H522.

Regarding `Cc1ccc2c(O)cc(-c3cc(C)sc3C)nc2n1`, the GI50 in [1] is 14.4 µM (inactive); in experiment [2], 4.78 µM (inactive); in [3], 2.26 µM (inactive); in [4], 2.55 µM (inactive); in experiment [5], 2.37 µM (inactive); in [6], 5.53 µM (inactive). In addition, the GI50 was 1.94 µM (inactive) in [7]; > 36.6 µM (inactive) in experiment [8]; 3.66 µM (inactive) in experiment [9]; 4.14 µM (inactive) in [10]; 0.55 µM (active) in experiment [11]; 2.9 µM (inactive) in experiment [12]. Besides, the GI50 in experiment [13] was 2.94 µM (inactive); in [14] it was 2.67 µM (inactive); in experiment [15], 2.53 µM (inactive); in [16], 0.351 µM (active); in [17] it was 4.82 µM (inactive); in experiment [18], 2.07 µM (inactive).

Regarding `COc1cc(CCCl)c(CC2=NCCc3cc(OC)c(OC)cc32)cc1OC`, the GI50 in experiment [1] is 34 µM (inactive); in [3], 47.4 µM (inactive); in experiment [4], 41.1 µM (inactive); in experiment [5] it was 39.4 µM (inactive); in experiment [6] it was > 100 µM (inactive); in experiment [7], 19.8 µM (inactive). Also, the GI50 was > 100 µM (inactive) in experiment [8]; > 100 µM (inactive) in experiment [9]; > 100 µM (inactive) in experiment [10]; 23 µM (inactive) in experiment [11]; > 100 µM (inactive) in experiment [12]; 31 µM (inactive) in experiment [13]. For the same molecule, the GI50 is > 100 µM (inactive) in experiment [14], 45.7 µM (inactive) in experiment [15], 89.9 µM (inactive) in experiment [16] and 32.5 µM (inactive) in experiment [17].

`Cc1c(OCc2ccccc2)c(=O)ccn1CCc1c[nH]c2ccccc12`: the GI50 was 16.4 µM (inactive) in [3]; 30.9 µM (inactive) in [4]; 31.9 µM (inactive) in [5]; 56.4 µM (inactive) in experiment [7]; 32.7 µM (inactive) in experiment [9]; 1.9 µM (inactive) in [10]. Moreover, the GI50 in experiment [11] was 27.6 µM (inactive); in [14], 17.3 µM (inactive); in experiment [15], 40.7 µM (inactive); in [16], 20 µM (inactive); in [17], 23.3 µM (inactive); in experiment [18], 21.3 µM (inactive).

With `O=C1Cc2c(-c3ccccc3)cc(-c3cccc(Cl)c3)nc2-c2ccccc2N1`, the GI50 is 1.82 µM (inactive) in experiment [1]; 4.82 µM (inactive) in [2]; 6.62 µM (inactive) in [3]; 5.97 µM (inactive) in experiment [4]; 15.7 µM (inactive) in experiment [5]; 3.9 µM (inactive) in experiment [6]. In addition, the GI50 was 3.56 µM (inactive) in experiment [7]; 1.5 µM (inactive) in experiment [8]; 1.64 µM (inactive) in experiment [9]; 20.1 µM (inactive) in experiment [10]; 37.9 µM (inactive) in experiment [11]; 1.77 µM (inactive) in experiment [12]. The GI50 in experiment [13] is 3.33 µM (inactive); in experiment [14], 2.05 µM (inactive); in experiment [15], 12.1 µM (inactive); in experiment [16], 8.91 µM (inactive); in experiment [17] it was 1.73 µM (inactive); in experiment [18], 1.05 µM (active).

Consider `O=C1c2ccccc2-c2nnc(-c3ccc([N+](=O)[O-])cc3)cc21`, for which the GI50 in experiment [1], in [2], in [3], in experiment [4], in experiment [5] and in [6] was > 10 µM (inactive) each time. Moreover, the GI50 in [7], in experiment [8], in [9], in [10], in [11] and in experiment [12] was > 10 µM (inactive) in each case. Further, the GI50 in experiment [13], in experiment [14], in experiment [15], in [16], in experiment [17] and in experiment [18] was > 10 µM (inactive) throughout.

For `CCOC(=O)C[C@@H]1C2(C=C[C@@]13CO3)OCC(C)(C)CO2`, the GI50 in experiment [1], in experiment [2], in [3], in experiment [4], in [6] and in experiment [7] was > 100 µM (inactive) each time. The GI50 in [8] is 8.2 µM (inactive); in experiment [10], > 100 µM (inactive); in [11], > 100 µM (inactive); in experiment [12], > 100 µM (inactive); in experiment [13] it was > 100 µM (inactive); in experiment [14] it was > 100 µM (inactive). Moreover, the GI50 in [15], in experiment [16] and in experiment [17] was > 100 µM (inactive) in each case.

Turning to `[N-]=[N+]=Nc1c(C=O)c(=O)n2c3c(cccc13)CCC2`, the GI50 was 2.94 µM (inactive) in experiment [1]; 13.6 µM (inactive) in experiment [2]; 2.3 µM (inactive) in experiment [3]; 12.1 µM (inactive) in [4]; 2.87 µM (inactive) in experiment [5]; 11.5 µM (inactive) in experiment [6]. Also, the GI50 in [7] was 25.9 µM (inactive); in experiment [8] it was 2.24 µM (inactive); in experiment [9] it was 20 µM (inactive); in [10], 1.24 µM (inactive); in [11], 1.1 µM (active); in [12], 14.2 µM (inactive). For the same molecule, the GI50 in experiment [13] is 2.82 µM (inactive); in [14], 4.86 µM (inactive); in [15], 0.778 µM (active); in [16] it was 6.89 µM (inactive); in experiment [17] it was 10 µM (inactive); in experiment [18] it was 2.13 µM (inactive).

For the molecule `O=C1Oc2ccc([N+](=O)[O-])cc2N/C1=C\C(=O)c1ccccc1`, the GI50 in experiment [1] was > 100 µM (inactive); in [2] it was > 100 µM (inactive); in [3], 97.5 µM (inactive); in experiment [4] it was 72.4 µM (inactive); in experiment [5], > 100 µM (inactive); in experiment [6], > 100 µM (inactive). In addition, the GI50 in experiment [7] is > 100 µM (inactive); in experiment [8], > 100 µM (inactive); in [9], > 100 µM (inactive); in experiment [10], > 100 µM (inactive); in [11], 74.1 µM (inactive); in experiment [12], 80 µM (inactive). Further, the GI50 in experiment [13] was > 100 µM (inactive); in experiment [14] it was 97.5 µM (inactive); in experiment [15], 43.5 µM (inactive); in [16], > 100 µM (inactive); in [17], > 100 µM (inactive); in experiment [18], 76.2 µM (inactive).

For `O=C1C(Cl)=C(N2CCC[C@H]2CO)C(=O)c2c(O)ccc(O)c21`, the GI50 is 1.66 µM (inactive) in [1]; > 10 µM (inactive) in [2]; 1.77 µM (inactive) in [3]; 4.24 µM (inactive) in experiment [4]; 0.379 µM (active) in [5]; 1.55 µM (inactive) in experiment [6]. Moreover, the GI50 in experiment [7] was > 10 µM (inactive); in [8] it was 2.16 µM (inactive); in [9] it was > 10 µM (inactive); in experiment [10], 0.337 µM (active); in experiment [11] it was 0.592 µM (active); in [12] it was > 10 µM (inactive). Also, the GI50 in experiment [13] is 0.425 µM (active); in experiment [14], 2.11 µM (inactive); in experiment [15], 0.22 µM (active); in [16] it was 1.82 µM (inactive); in experiment [17], 4.18 µM (inactive); in [18], 0.104 µM (active).

Turning to `COC(=O)C1(c2ccc(N(C)C)cc2OC)CCCN(C(=O)Oc2ccccc2[N+](=O)[O-])CCc2c1[nH]c1ccccc21` (stereo not drawn), the GI50 in experiment [1], in [2], in experiment [3], in experiment [4], in experiment [6] and in [7] was > 100 µM (inactive) in each case. Besides, the GI50 in experiment [10] is 16.9 µM (inactive); in [11], > 100 µM (inactive); in experiment [12] it was > 100 µM (inactive); in experiment [13] it was 78.3 µM (inactive); in experiment [14] it was > 100 µM (inactive); in experiment [16], > 100 µM (inactive). In addition, the GI50 in experiment [17] and in experiment [18] was > 100 µM (inactive) throughout.

As to `CCSc1nc(N)c2c(-c3ccc(OC)c(OC)c3)c3c(nc2n1)CCCC3`, the GI50 in [1], in [3], in [4], in experiment [5], in [6] and in experiment [7] was > 100 µM (inactive) throughout. Further, the GI50 in experiment [8] was > 100 µM (inactive); in experiment [9] it was > 100 µM (inactive); in experiment [10], > 100 µM (inactive); in experiment [11], > 100 µM (inactive); in experiment [12], 58.2 µM (inactive); in [13], > 100 µM (inactive). Further, the GI50 in [14], in experiment [15], in [16] and in experiment [17] was > 100 µM (inactive) throughout.

Regarding `CCP(=O)(CC)C(Cl)Cl`, the GI50 in experiment [1], in experiment [3], in [4], in experiment [5], in [6] and in experiment [7] was > 100 µM (inactive) in each case. Besides, the GI50 in [8], in experiment [9], in [10], in experiment [11], in experiment [12] and in experiment [13] was > 100 µM (inactive) in each case. Moreover, the GI50 in experiment [14], in [15], in [16], in [17] and in experiment [18] was > 100 µM (inactive) each time.
